Source: ChEMBL document CHEMBL5252673, “Development of thiazole-appended novel hydrazones as a new class of α-amylase inhibitors with anticancer assets: an in silico and in vitro approach” (RSC Med Chem, 2023)
pIC50: −log10 of the molar value.

Experiments:
HCT-116 = experiment: Antiproliferative activity against human HCT-116 cells assessed as inhibition of cell growth incubated for 48 hrs by MTT assay; assay type: functional, cell-based; conditions: HCT-116, 48 h
A549 [1] = experiment: Antiproliferative activity against human A549 cells assessed as inhibition of cell growth incubated for 48 hrs by MTT assay; assay type: functional, cell-based; conditions: A549, 48 h
MDA-MB-231 = experiment: Antiproliferative activity against human MDA-MB-231 cells assessed as inhibition of cell growth incubated for 48 hrs by MTT assay; assay type: functional, cell-based; conditions: MDA-MB-231, 48 h
Alpha amylase [2] = biological target: T1, Alpha amylase (Homo sapiens, UniProt P0DUB6); experiment: Inhibition of alpha-amylase (unknown origin) using starch as substrate preincubated with substrate for 15 mins followed by compound addition and measured after 15 mins by UV-VIS spectrophotometric analysis
T1 sequence (P0DUB6 whole entry): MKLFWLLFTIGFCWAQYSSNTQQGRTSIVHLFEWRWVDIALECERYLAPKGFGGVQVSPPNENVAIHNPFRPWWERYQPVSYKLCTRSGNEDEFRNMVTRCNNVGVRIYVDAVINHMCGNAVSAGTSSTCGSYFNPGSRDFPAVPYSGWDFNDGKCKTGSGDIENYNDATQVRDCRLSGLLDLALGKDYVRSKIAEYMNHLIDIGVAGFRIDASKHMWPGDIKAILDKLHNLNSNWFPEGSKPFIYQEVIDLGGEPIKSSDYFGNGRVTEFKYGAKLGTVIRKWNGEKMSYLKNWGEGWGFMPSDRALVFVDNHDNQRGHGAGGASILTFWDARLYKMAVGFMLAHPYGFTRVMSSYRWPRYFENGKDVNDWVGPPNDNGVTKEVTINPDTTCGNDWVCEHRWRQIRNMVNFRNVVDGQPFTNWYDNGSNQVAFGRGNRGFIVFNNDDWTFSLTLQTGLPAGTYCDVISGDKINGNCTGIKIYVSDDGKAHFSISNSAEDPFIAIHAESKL

Alpha amylase [3] = biological target: T1, Alpha amylase; experiment: Inhibition of alpha-amylase (unknown origin)
MCF-10A = experiment: Cytotoxicity against human MCF-10A assessed as reduction in cell viability upto 10 uM incubated for 48 hrs by MTT assay; assay type: toxicity, cell-based
A549 [4] = experiment: Induction of ROS in human A549 cells at sub IC50 concentration incubated for 24 hrs by H2DCFDA dye based fluorescence assay (reference value: 33.28%); assay type: functional
Alpha amylase [5] = biological target: T1, Alpha amylase; experiment: Inhibition of alpha-amylase (unknown origin) using starch as substrate incubated for 30 mins by microplate reader analysis

Row | Structure (SMILES) | pIC50 (HCT-116) | pIC50 (A549 [1]) | pIC50 (MDA-MB-231) | IC50 (Alpha amylase [2]) [µM] | IC50 (Alpha amylase [3]) [µM] | Activity (MCF-10A) | Activity (A549 [4]) [%] | IC50 (Alpha amylase [5]) [µM]
1 | O=C(N/N=C/c1ccc(F)cc1)c1csc(Nc2ccc([N+](=O)[O-])cc2)n1 | 5.12 | 5.27 | 5.08 | 0.34 | – | – | – | –
2 | Cc1c(C(=O)N/N=C/c2ccc(O)c(O)c2)oc2ccccc12 | – | – | – | – | 1.24 | – | – | –
3 | COc1ccc(/C=N/NC(=O)c2csc(Nc3ccc(Cl)cc3)n2)cc1 | 4.88 | 4.95 | 4.79 | 0.4 | – | – | – | –
4 | O=C(N/N=C/c1ccccc1)c1csc(Nc2ccc([N+](=O)[O-])cc2)n1 | 5.14 | 4.95 | 4.63 | 0.37 | – | – | – | –
5 | COc1ccc(Nc2nc(C(=O)N/N=C/c3ccc(O)c(OC)c3)cs2)cc1 | 5.30 | 5.40 | 5.31 | 0.43 | – | – | – | –
6 | COc1cc(/C=N/NC(=O)c2csc(Nc3ccc(Cl)cc3)n2)ccc1O | 5.54 | 5.67 | 5.18 | 0.32 | – | – | – | –
7 | O=C(N/N=C/c1ccc(Cl)cc1)c1csc(Nc2ccc([N+](=O)[O-])cc2)n1 | 5.53 | 5.58 | 5.17 | 0.29 | – | Non-Toxic | 28.62 | –
8 | Fc1cccc(-c2nc3scc(-c4ccc(Br)cc4)n3n2)c1 | – | – | – | – | – | – | – | 3.2
9 | O=C(N/N=C/c1ccc(O)c(O)c1)c1csc(Nc2ccccc2)n1 | 4.91 | 5.01 | 4.83 | 0.45 | – | – | – | –
10 | COc1cc2c(c(OC)c1OC)-c1ccc(OC)c(=O)cc1[C@@H](NC(C)=O)CC2 [COLCHICINE] | 5.73 | 5.96 | 5.70 | – | – | – | – | –
11 | COc1ccc(Nc2nc(C(=O)N/N=C/c3ccc(Cl)cc3)cs2)cc1 | 4.92 | 4.99 | 5.03 | 0.41 | – | – | – | –
12 | COc1cc(-c2nc3ccccc3[nH]2)ccc1OCC(=O)Nc1ccccc1C | – | – | – | – | 11 | – | – | –
13 | C/C(=N\NC(=O)c1csc(Nc2ccc(Cl)cc2)n1)c1ccccn1 | 4.88 | 4.69 | 4.88 | 0.35 | – | – | – | –
14 | CC(=O)c1sc(N/N=C(/C)c2ccc(Cl)cc2)nc1C | – | – | – | – | 4.79 | – | – | –
15 | COc1ccc(Nc2nc(C(=O)N/N=C/c3ccc(O)cc3)cs2)cc1 | 5.16 | 5.10 | 5.01 | 0.5 | – | – | – | –
16 | O=C(N/N=C/c1ccc(O)cc1)c1csc(Nc2ccccc2)n1 | 5.35 | 4.95 | 5.08 | 0.45 | – | – | – | –
17 | Cc1ccc([C@H]2C3CSCN3[C@@]3(C(=O)Nc4ccccc43)[C@]23N=C(c2ccccc2)OC3=O)cc1 (stereo partly drawn) | – | – | – | – | 1.76 | – | – | –
18 | O=C(N/N=C/c1ccccc1)c1csc(Nc2ccccc2)n1 | 5.19 | 5.22 | < 4.60 | 0.48 | – | – | – | –
19 | COc1cc(/C=N/NC(=O)c2csc(Nc3ccc([N+](=O)[O-])cc3)n2)cc(OC)c1OC | 5.99 | 5.79 | 5.57 | 0.26 | – | Non-Toxic | 22.34 | –
20 | COc1ccc(Nc2nc(C(=O)N/N=C/c3ccc(OC)c(OC)c3)cs2)cc1 | 5.64 | 5.53 | 5.49 | 0.43 | – | – | – | –
